Reference: paper PMC12520178, “Turn-engineering tunes the conformational rigidity of β-hairpin AMPs in achieving membrane selectivity and killing drug-resistant ESKAPE pathogens” (Chemical Science, 2025)
Converted amounts (≈) assume the structure as drawn. Like-named read-outs stand apart in the source and are kept apart here. Where a SMILES comes first, the peptide text is derived from it. Bridges are numbered along the chain shown (N, C = ends). [ ]: non-standard residue; d: D form. NMeR = CN[C@@H](CCCNC(=N)N)C(=O)O; dNMeR = CN[C@H](CCCNC(=N)N)C(=O)O

Key:
Pseudomonas aeruginosa = format: cell-based
human red blood cells [1] = conditions: red cells of human
Acinetobacter baumannii = format: cell-based
Klebsiella pneumoniae = format: cell-based
Staphylococcus aureus = test: microbe, parasite or virus in culture; format: cell-based
Escherichia coli = format: cell-based
human red blood cells [2] = test: Hemolysis assay against human red blood cells; conditions: ≥10% hemolysis against human RBCs; 4% (v/v) hRBCs in PBS, 1.5 h at 37 °C, 405 nm; n = 3
[3] = against E. coli, microbroth dilution, 5x10^5 cfu/mL, 20-24 h at 37 °C, turbidity 600 nm, n = 5, median

| SMILES | MIC (μM) pa (Pseudomonas aeruginosa) [µM] | MHC10 (μM), minimum hemolytic concentration (human red blood cells [1]) [µM] | MIC (μM) ab (Acinetobacter baumannii) [µM] | MIC (μM) kp (Klebsiella pneumoniae) [µM] | MIC (μM) sa (Staphylococcus aureus) [µM] | MIC90 (Escherichia coli) [µM] | MIC (μM) ec (Escherichia coli) [µM] | MHC10 (μM), minimum hemolytic concentration (human red blood cells [2]) [µM] | MIC90 (Escherichia coli; [3]) [µM] |
| --- | --- | --- | --- | --- | --- | --- | --- | --- | --- |
| CC(C)C[C@H](NC(=O)[C@H](CCCNC(=N)N)NC(=O)CNC(=O)CNC(=O)[C@@H](N)CCCNC(=N)N)C(=O)N[C@H](C(=O)N[C@@H](Cc1ccc(O)cc1)C(=O)N[C@H](C(=O)N[C@@H](CCCNC(=N)N)C(=O)N[C@@H](CCCNC(=N)N)C(=O)N[C@@H](CCCNC(=N)N)C(=O)N[C@@H](Cc1ccccc1)C(=O)N[C@H](C(=O)N[C@H](C(=O)N[C@H](C(=O)N[C@H](C(=O)NCC(=O)N[C@@H](CCCNC(=N)N)C(N)=O)C(C)C)[C@@H](C)O)C(C)C)[C@@H](C)O)[C@@H](C)O)[C@@H](C)O [2c] (H-RGGRLTYTRRRFTVTVGR-NH2) | 3.1 (≈ 6.67 µg/mL) | >200 | 3.1 (≈ 6.67 µg/mL) | 3.1 (≈ 6.67 µg/mL) | 6.3 (≈ 13.6 µg/mL) | 1 (≈ 2.15 µg/mL) |  |  |  |
| CC(C)C[C@H](NC(=O)[C@H](CCCNC(=N)N)NC(=O)CNC(=O)CNC(=O)[C@@H](N)CCCNC(=N)N)C(=O)N[C@H](C(=O)N[C@@H](Cc1ccc(O)cc1)C(=O)N[C@H](C(=O)N[C@@H](CCCNC(=N)N)C(=O)N[C@H](C)C(=O)N(C)[C@@H](CCCNC(=N)N)C(=O)N[C@@H](Cc1ccccc1)C(=O)N[C@H](C(=O)N[C@H](C(=O)N[C@H](C(=O)N[C@H](C(=O)NCC(=O)N[C@@H](CCCNC(=N)N)C(N)=O)C(C)C)[C@@H](C)O)C(C)C)[C@@H](C)O)[C@@H](C)O)[C@@H](C)O [2d] (H-RGGRLTYTR[dA][NMeR]FTVTVGR-NH2) | 1.6 (≈ 3.33 µg/mL) | 100 | 0.4 (≈ 0.832 µg/mL) | 0.8 (≈ 1.66 µg/mL) | 3.1 (≈ 6.45 µg/mL) | 0.4 (≈ 0.832 µg/mL) |  |  |  |
| CC(C)C[C@@H](NC(=O)[C@@H](CCCNC(=N)N)NC(=O)CNC(=O)CNC(=O)[C@H](N)CCCNC(=N)N)C(=O)N[C@@H](C(=O)N[C@H](Cc1ccc(O)cc1)C(=O)N[C@@H](C(=O)N[C@H](CCCNC(=N)N)C(=O)N[C@@H](C)C(=O)N(C)[C@H](CCCNC(=N)N)C(=O)N[C@H](Cc1ccccc1)C(=O)N[C@@H](C(=O)N[C@@H](C(=O)N[C@@H](C(=O)N[C@@H](C(=O)NCC(=O)N[C@H](CCCNC(=N)N)C(N)=O)C(C)C)[C@H](C)O)C(C)C)[C@H](C)O)[C@H](C)O)[C@H](C)O [2f] (H-[dR]GG[dR][dL][dT][dY][dT][dR]A[dNMeR][dF][dT][dV][dT][dV]G[dR]-NH2) | 1.6 (≈ 3.33 µg/mL) | >200 | 2.3 (≈ 4.79 µg/mL) | 3.1 (≈ 6.45 µg/mL) | 2.3 (≈ 4.79 µg/mL) | 0.4 (≈ 0.832 µg/mL) | 0.4 (≈ 0.832 µg/mL) |  |  |
| CC(C)[C@@H]1NC(=O)[C@H](CCCNC(=N)N)NC(=O)[C@H](Cc2ccccc2)NC(=O)[C@@H](NC(=O)[C@H](Cc2c[nH]c3ccccc23)NC(=O)[C@H](CCCNC(=N)N)NC(=O)[C@@H](N)CCCNC(=N)N)CSSC[C@@H](C(=O)N[C@@H](CCCNC(=N)N)C(N)=O)NC(=O)[C@H](CCCCN)NC(=O)[C@H](CCCNC(=N)N)NC(=O)[C@H](Cc2ccc(O)cc2)NC(=O)[C@@H]2CSSC[C@H](NC1=O)C(=O)N[C@@H](Cc1ccc(O)cc1)C(=O)N[C@H](C)C(=O)N(C)[C@@H](CCCNC(=N)N)C(=O)N[C@@H](Cc1ccccc1)C(=O)N2 [3a] (H-RRWCFRVCY[dA][NMeR]FCYRKCR-NH2; disulfide 4-17, 8-13) |  |  |  |  |  |  |  | 12.5 | 0.7 (≈ 1.74 µg/mL) |
| CC(C)[C@@H]1NC(=O)[C@H](CCCNC(=N)N)NC(=O)[C@H](Cc2ccccc2)NC(=O)[C@@H](NC(=O)[C@H](Cc2c[nH]c3ccccc23)NC(=O)[C@H](CCCNC(=N)N)NC(=O)[C@@H](N)CCCNC(=N)N)CSSC[C@@H](C(=O)N[C@@H](CCCNC(=N)N)C(N)=O)NC(=O)[C@H](CCCCN)NC(=O)[C@H](CCCNC(=N)N)NC(=O)[C@H](Cc2ccc(O)cc2)NC(=O)[C@@H]2CSSC[C@H](NC1=O)C(=O)N[C@@H](Cc1ccc(O)cc1)C(=O)N[C@H](C(C)C)C(=O)N(C)[C@@H](CCCNC(=N)N)C(=O)N[C@@H](Cc1ccccc1)C(=O)N2 [3b] (H-RRWCFRVCY[dV][NMeR]FCYRKCR-NH2; disulfide 4-17, 8-13) |  |  |  |  |  |  |  | 6.25 | 0.9 (≈ 2.26 µg/mL) |
| CC(C)[C@H](NC(=O)[C@H](CCCNC(=N)N)NC(=O)[C@H](Cc1ccccc1)NC(=O)[C@@H](NC(=O)[C@H](Cc1c[nH]c2ccccc12)NC(=O)[C@H](CCCNC(=N)N)NC(=O)[C@@H](N)CCCNC(=N)N)[C@@H](C)O)C(=O)N[C@H](C(=O)N[C@@H](Cc1ccc(O)cc1)C(=O)N[C@@H](CCCNC(=N)N)C(=O)NCC(=O)N[C@@H](Cc1ccccc1)C(=O)N[C@H](C(=O)N[C@@H](Cc1ccc(O)cc1)C(=O)N[C@@H](CCCNC(=N)N)C(=O)N[C@@H](CCCCN)C(=O)N[C@H](C(=O)N[C@@H](CCCNC(=N)N)C(N)=O)[C@@H](C)O)[C@@H](C)O)[C@@H](C)O [3c] (H-RRWTFRVTYRGFTYRKTR-NH2) | 6.3 (≈ 15.4 µg/mL) | 100 | 3.1 (≈ 7.59 µg/mL) | 6.3 (≈ 15.4 µg/mL) | 6.3 (≈ 15.4 µg/mL) | 1.9 (≈ 4.65 µg/mL) |  |  |  |
| CC(C)[C@H](NC(=O)[C@H](CCCNC(=N)N)NC(=O)[C@H](Cc1ccccc1)NC(=O)[C@@H](NC(=O)[C@H](Cc1c[nH]c2ccccc12)NC(=O)[C@H](CCCNC(=N)N)NC(=O)[C@@H](N)CCCNC(=N)N)[C@@H](C)O)C(=O)N[C@H](C(=O)N[C@@H](Cc1ccc(O)cc1)C(=O)N[C@H](C)C(=O)N(C)[C@@H](CCCNC(=N)N)C(=O)N[C@@H](Cc1ccccc1)C(=O)N[C@H](C(=O)N[C@@H](Cc1ccc(O)cc1)C(=O)N[C@@H](CCCNC(=N)N)C(=O)N[C@@H](CCCCN)C(=O)N[C@H](C(=O)N[C@@H](CCCNC(=N)N)C(N)=O)[C@@H](C)O)[C@@H](C)O)[C@@H](C)O [3d] (H-RRWTFRVTY[dA][NMeR]FTYRKTR-NH2) | 0.4 (≈ 0.991 µg/mL) | 50 | 0.8 (≈ 1.98 µg/mL) | 2.4 (≈ 5.95 µg/mL) | 3.1 (≈ 7.68 µg/mL) | 0.4 (≈ 0.991 µg/mL) | 0.4 (≈ 0.991 µg/mL) |  |  |
| CC(C)[C@@H](NC(=O)[C@@H](CCCNC(=N)N)NC(=O)[C@@H](Cc1ccccc1)NC(=O)[C@H](NC(=O)[C@@H](Cc1c[nH]c2ccccc12)NC(=O)[C@@H](CCCNC(=N)N)NC(=O)[C@H](N)CCCNC(=N)N)[C@H](C)O)C(=O)N[C@@H](C(=O)N[C@H](Cc1ccc(O)cc1)C(=O)N[C@@H](C)C(=O)N(C)[C@H](CCCNC(=N)N)C(=O)N[C@H](Cc1ccccc1)C(=O)N[C@@H](C(=O)N[C@H](Cc1ccc(O)cc1)C(=O)N[C@H](CCCNC(=N)N)C(=O)N[C@H](CCCCN)C(=O)N[C@@H](C(=O)N[C@H](CCCNC(=N)N)C(N)=O)[C@H](C)O)[C@H](C)O)[C@H](C)O [3f] (H-[dR][dR][dW][dT][dF][dR][dV][dT][dY]A[dNMeR][dF][dT][dY][dR][dK][dT][dR]-NH2) | 1.6 (≈ 3.96 µg/mL) | 100 | 1.6 (≈ 3.96 µg/mL) | 3.1 (≈ 7.68 µg/mL) | 1.2 (≈ 2.97 µg/mL) | 0.4 (≈ 0.991 µg/mL) | 0.4 (≈ 0.991 µg/mL) |  |  |
| CC[C@H](C)[C@H](NC(=O)CNC(=O)[C@H](CCCNC(=N)N)NC(=O)[C@H](Cc1ccc(O)cc1)NC(=O)[C@@H](NC(=O)[C@@H](NC(=O)[C@H](CCCNC(=N)N)NC(=O)[C@H](Cc1ccccc1)NC(=O)[C@@H](NC(=O)[C@H](Cc1c[nH]c2ccccc12)NC(=O)[C@@H](N)CCCCN)[C@@H](C)O)C(C)C)[C@@H](C)O)C(=O)N[C@H](C(=O)N[C@@H](Cc1ccc(O)cc1)C(=O)N[C@@H](CCCNC(=N)N)C(=O)N[C@@H](CCCNC(=N)N)C(=O)N[C@H](C(=O)N[C@@H](CCCNC(=N)N)C(N)=O)[C@@H](C)O)[C@@H](C)O [4c] (H-KWTFRVTYRGITYRRTR-NH2) | 6.3 (≈ 14.2 µg/mL) | 100 | 1.6 (≈ 3.62 µg/mL) | 6.3 (≈ 14.2 µg/mL) | 12.5 (≈ 28.2 µg/mL) | 2.2 (≈ 4.97 µg/mL) |  |  |  |
| CC[C@H](C)[C@H](NC(=O)[C@H](CCCNC(=N)N)N(C)C(=O)[C@@H](C)NC(=O)[C@H](Cc1ccc(O)cc1)NC(=O)[C@@H](NC(=O)[C@@H](NC(=O)[C@H](CCCNC(=N)N)NC(=O)[C@H](Cc1ccccc1)NC(=O)[C@@H](NC(=O)[C@H](Cc1c[nH]c2ccccc12)NC(=O)[C@@H](N)CCCCN)[C@@H](C)O)C(C)C)[C@@H](C)O)C(=O)N[C@H](C(=O)N[C@@H](Cc1ccc(O)cc1)C(=O)N[C@@H](CCCNC(=N)N)C(=O)N[C@@H](CCCNC(=N)N)C(=O)N[C@H](C(=O)N[C@@H](CCCNC(=N)N)C(N)=O)[C@@H](C)O)[C@@H](C)O [4d] (H-KWTFRVTY[dA][NMeR]ITYRRTR-NH2) | 1.6 (≈ 3.66 µg/mL) | 100 | 0.8 (≈ 1.83 µg/mL) | 1.6 (≈ 3.66 µg/mL) | 3.1 (≈ 7.09 µg/mL) | 0.4 (≈ 0.915 µg/mL) |  |  |  |
| CC(C)C[C@H](NC(=O)[C@H](CCCNC(=N)N)NC(=O)CNC(=O)CNC(=O)[C@@H](N)CCCNC(=N)N)C(=O)N[C@H]1CSSC[C@@H](C(=O)N[C@H](C(=O)NCC(=O)N[C@@H](CCCNC(=N)N)C(N)=O)C(C)C)NC(=O)[C@H](C(C)C)NC(=O)[C@@H]2CSSC[C@H](NC(=O)[C@H](Cc3ccc(O)cc3)NC1=O)C(=O)N[C@@H](CCCNC(=N)N)C(=O)N[C@@H](CCCNC(=N)N)C(=O)N[C@@H](CCCNC(=N)N)C(=O)N[C@@H](Cc1ccccc1)C(=O)N2 [compound 2, reference compound] | 0.6 (≈ 1.29 µg/mL) | 3.12 | 0.4 (≈ 0.862 µg/mL) | 0.6 (≈ 1.29 µg/mL) | 3.1 (≈ 6.68 µg/mL) | 0.3 (≈ 0.647 µg/mL) | 0.3 (≈ 0.647 µg/mL) |  |  |
